These results are taken from patent publication US9670227B2, “Thienopyrimidine derivatives, a process for their preparation and pharmaceutical compositions containing them” (LES LABORATOIRES SERVIER, priority 2013, dated 2017).

Assay [1] concerns the target Mcl-1 protein (UniProtKB primary accession number: Q07820) (Homo sapiens, UniProt Q07820). As to the kind of experiment: Inhibition of Mcl-1 by fluorescence polarisation, Method 1. Particulars: read-out: IC50 (M) Mcl-1 FP. In kind it is binding. A digest of the protocol: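 Compounds were tested as 11-point serial dilutions at 5% final DMSO against 5 nM Mcl-1 with 1 nM fluorescein-labelled ligand in 10 mM HEPES, 150 mM NaCl, 0.05% Tween 20, pH 7.4. Relative binding potency was read by fluorescence polarisation.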
On the technique in general: Polarisation of emitted light reports the rotation of a fluorescent probe.

Assay [2] relates to H929 multiple myeloma tumour line. As to the kind of experiment: In vitro cytotoxicity, Microculture Tetrazolium Assay. The format is cell-based. As to conditions: H929 cells, 48 hours exposure, MTT, read-out: IC50 (μM) MTT H929. The protocol:
The cytotoxicity studies were carried out on the H929 multiple myeloma tumour line.
The cells are distributed onto microplates and exposed to the test compounds for 48 hours.

Setting [3] is: fluorescence polarisation test, Method 2 values are underlined in the patent (underlining not visible here).
The mark [4] stands for this setting: fluorescence polarisation, Method 1, or Method 2.

SMILES strings stand for the structures. Read-outs that look alike come from different tables or passages of the source.

Mcl-1 protein, sequence (Q07820 whole entry): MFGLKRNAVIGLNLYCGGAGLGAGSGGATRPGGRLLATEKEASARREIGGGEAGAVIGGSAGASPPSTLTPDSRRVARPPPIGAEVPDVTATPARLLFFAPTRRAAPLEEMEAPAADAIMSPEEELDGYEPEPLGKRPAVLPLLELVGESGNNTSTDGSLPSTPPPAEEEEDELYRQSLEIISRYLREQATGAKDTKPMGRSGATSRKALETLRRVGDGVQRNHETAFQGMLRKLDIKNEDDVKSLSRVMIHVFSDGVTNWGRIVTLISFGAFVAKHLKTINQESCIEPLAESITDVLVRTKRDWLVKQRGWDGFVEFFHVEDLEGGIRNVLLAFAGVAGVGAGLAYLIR

For orientation: IC50 means the concentration needed to halve the response being measured. Consider `Cc1c(-c2c(-c3ccc(F)cc3)sc3ncnc(OC(Cc4ccccc4OCc4ccnn4C4CCCC4)C(=O)O)c23)ccc(OCCN2CCN(C)CC2)c1Cl` [Example 72, (2R)-2-{[(5Sa)-5-{3-chloro-2-methyl-4-[2-(4-methylpiperazin-1-yl)ethoxy]phenyl}-6-(4-fluorophenyl)thieno[2,3-d]pyrimidin-4-yl]oxy}-3-{2-[(1-cyclopentyl-1H-pyrazol-5-yl)methoxy]phenyl}propanoic acid], for which the IC50 is 9.3e-09 M in assay [1] (setting [3]) and 0.04 µM in assay [2] (Homo sapiens, NCI-H929, 48 h).

For the molecule `COCCOc1cc(-c2sc3ncnc(OC(Cc4ccccc4OCc4ccnc(OC)n4)C(=O)O)c3c2-c2ccc(OCCN3CCN(C)CC3)c(Cl)c2C)ccc1F` [Example 598, (2R)-2-[((5Sa)-5-{3-chloro-2-methyl-4-[2-(4-methylpiperazin-1-yl)ethoxy]phenyl}-6-[4-fluoro-3-(2-methoxyethoxy)phenyl]thieno[2,3-d]pyrimidin-4-yl)oxy]-3-{2-[(2-methoxypyrimidin-4-yl)methoxy]phenyl}propanoic acid], the IC50 in assay [1] (setting [4]) came out at 7.8e-09 M; in assay [2] (Homo sapiens, NCI-H929, 48 h), 0.097 µM.

On to `CCCCNC(=O)COc1ccccc1CC(Oc1ncnc2sc(-c3ccc(F)o3)c(-c3ccc(OCCN4CCN(C)CC4)c(Cl)c3C)c12)C(=O)O` [Example 156, (2R)-3-{2-[2-(butylamino)-2-oxoethoxy]phenyl}-2-{[(5Sa)-5-{3-chloro-2-methyl-4-[2-(4-methylpiperazin-1-yl)ethoxy]phenyl}-6-(5-fluorofuran-2-yl)thieno[2,3-d]pyrimidin-4-yl]oxy}propanoic acid], for which the IC50 in assay [1] (setting [3]) amounted to 7e-09 M; in assay [2] (Homo sapiens, NCI-H929, 48 h) it was 0.092 µM.

On to `Cc1c(-c2c(-c3ccco3)sc3ncnc(OC(Cc4ccccc4OCc4ccnc(N5CCOCC5)n4)C(=O)O)c23)ccc(OCCN2CCN(C)CC2)c1Cl` [Example 252, (2R)-2-{[(5Sa)-5-{3-chloro-2-methyl-4-[2-(4-methylpiperazin-1-yl)ethoxy]phenyl}-6-(furan-2-yl)thieno[2,3-d]pyrimidin-4-yl]oxy}-3-(2-{[2-(morpholin-4-yl)pyrimidin-4-yl]methoxy}phenyl)propanoic acid], for which the IC50 in assay [1] (setting [3]) was 4.2e-09 M; in assay [2] (Homo sapiens, NCI-H929, 48 h) it was 0.009 µM.

Turning to `Cc1c(-c2c(-c3ccc(F)cc3)sc3ncnc(OC(Cc4ccccc4OCCF)C(=O)O)c23)ccc(OCCN2CCN(C)CC2)c1Cl` [Example 103, (2R)-2-{[(5Sa)-5-{3-chloro-2-methyl-4-[2-(4-methylpiperazin-1-yl)ethoxy]phenyl}-6-(4-fluorophenyl)thieno[2,3-d]pyrimidin-4-yl]oxy}-3-[2-(2-fluoroethoxy)phenyl]propanoic acid], the IC50 in assay [1] (setting [3]) amounted to 2.4e-08 M; in assay [2] (Homo sapiens, NCI-H929, 48 h), 0.214 µM.

As to `CCc1ccc(-c2sc3ncnc(OC(Cc4ccccc4OC)C(=O)O)c3c2-c2ccc(OCCN3CCN(C)CC3)c(Cl)c2C)o1` [Example 543, (2R)-2-{[(5Sa)-5-{3-chloro-2-methyl-4-[2-(4-methylpiperazin-1-yl)ethoxy]phenyl}-6-(5-ethylfuran-2-yl)thieno[2,3-d]pyrimidin-4-yl]oxy}-3-(2-methoxyphenyl)propanoic acid], the IC50 worked out at 4.2e-08 M in assay [1] (setting [4]) and 0.766 µM in assay [2] (Homo sapiens, NCI-H929, 48 h).

As for `CC#Cc1sc2ncnc(OC(Cc3ccccc3OC)C(=O)O)c2c1-c1ccc(OCCN2CCN(C)CC2)c(F)c1C` [Example 687, (2R)-2-{[(5Sa)-5-{3-fluoro-2-methyl-4-[2-(4-methylpiperazin-1-yl)ethoxy]phenyl}-6-(prop-1-yn-1-yl)thieno[2,3-d]pyrimidin-4-yl]oxy}-3-(2-methoxyphenyl)propanoic acid], the IC50 turned out to be 2.9e-08 M in assay [1] (setting [4]) and 3.66 µM in assay [2] (Homo sapiens, NCI-H929, 48 h).

Turning to `COc1ccc(Cn2nccc2COc2ccccc2CC(Oc2ncnc3sc(-c4ccc(F)cc4)c(-c4ccc(OCCN5CCN(C)CC5)c(Cl)c4C)c23)C(=O)O)cc1` [Example 79, (2R)-2-{[(5Sa)-5-{3-chloro-2-methyl-4-[2-(4-methylpiperazin-1-yl)ethoxy]phenyl}-6-(4-fluorophenyl)thieno[2,3-d]pyrimidin-4-yl]oxy}-3-(2-{[1-(4-methoxybenzyl)-1H-pyrazol-5-yl]methoxy}phenyl)propanoic acid], the IC50 in assay [1] (setting [3]) was 1.3e-08 M; in assay [2] (Homo sapiens, NCI-H929, 48 h), 0.168 µM.

As for `Cc1c(-c2c(-c3ccc(F)cc3)sc3ncnc(O[C@H](Cc4ccccc4OCc4cnccn4)C(=O)O)c23)ccc(OCC2CCCCN(C)C2)c1Cl` (stereo partly drawn) [Example 144, (2R)-2-{[(5Sa)-5-{3-chloro-2-methyl-4-[(1-methylazepan-3-yl)methoxy]phenyl}-6-(4-fluorophenyl)thieno[2,3-d]pyrimidin-4-yl]oxy}-3-[2-(pyrazin-2-ylmethoxy)phenyl]propanoic acid], the IC50 in assay [1] (setting [3]) came to 1.6e-08 M; in assay [2] it was 1.6 µM.

In the case of `COc1ccccc1CC(Oc1ncnc2sc(-c3cccc(N(C)C)c3)c(-c3ccc(OCCN4CCN(C)CC4)c(Cl)c3C)c12)C(=O)O` [Example 552, (2R)-2-[((5Sa)-5-{3-chloro-2-methyl-4-[2-(4-methylpiperazin-1-yl)ethoxy]phenyl}-6-[3-(dimethylamino)phenyl]thieno[2,3-d]pyrimidin-4-yl)oxy]-3-(2-methoxyphenyl)propanoic acid], the IC50 was 4.1e-08 M in assay [1] (setting [4]) and 0.784 µM in assay [2] (Homo sapiens, NCI-H929, 48 h).

Turning to `COc1nc(C)cc(COc2ccccc2CC(Oc2ncnc3sc(-c4ccc(F)o4)c(-c4ccc(OCCN5CCN(C)CC5)c(Cl)c4C)c23)C(=O)O)n1` [Example 160, (2R)-2-{[(5Sa)-5-{3-chloro-2-methyl-4-[2-(4-methylpiperazin-1-yl)ethoxy]phenyl}-6-(5-fluorofuran-2-yl)thieno[2,3-d]pyrimidin-4-yl]oxy}-3-{2-[(2-methoxy-6-methylpyrimidin-4-yl)methoxy]phenyl}propanoic acid], the IC50 in assay [1] (setting [3]) was found to be 5e-09 M; in assay [2] (Homo sapiens, NCI-H929, 48 h), 0.021 µM.

Regarding `COc1ccccc1CC(Oc1ncnc2sc(-c3ccc(C)cc3)c(-c3ccc(OCCN4CCN(C)CC4)c(Cl)c3C)c12)C(=O)O` [Example 538, (2R)-2-{[(5Sa)-5-{3-chloro-2-methyl-4-[2-(4-methylpiperazin-1-yl)ethoxy]phenyl}-6-(4-methylphenyl)thieno[2,3-d]pyrimidin-4-yl]oxy}-3-(2-methoxyphenyl)propanoic acid], the IC50 was 4.7e-08 M in assay [1] (setting [4]) and 0.672 µM in assay [2] (Homo sapiens, NCI-H929, 48 h).

Regarding `Cc1c(-c2c(-c3ccco3)sc3ncnc(OC(Cc4ccccc4OCc4nccn4C)C(=O)O)c23)ccc(OCCN2CCN(C)CC2)c1Cl` [Example 287, (2R)-2-{[(5Sa)-5-{3-chloro-2-methyl-4-[2-(4-methylpiperazin-1-yl)ethoxy]phenyl}-6-(furan-2-yl)thieno[2,3-d]pyrimidin-4-yl]oxy}-3-{2-[(1-methyl-1H-imidazol-2-yl)methoxy]phenyl}propanoic acid], the IC50 is 8.3e-09 M in assay [1] (setting [3]) and 0.667 µM in assay [2] (Homo sapiens, NCI-H929, 48 h).

As for `COc1ccccc1CC(Oc1ncnc2sc(-c3ccco3)c(-c3ccc(OCCC4CCCN4C)c(Cl)c3C)c12)C(=O)O` [Example 316, (2R)-2-{[(5Sa)-5-{3-chloro-2-methyl-4-[2-(1-methylpyrrolidin-2-yl)ethoxy]phenyl}-6-(furan-2-yl)thieno[2,3-d]pyrimidin-4-yl]oxy}-3-(2-methoxyphenyl)propanoic acid], the 50% inhibitory concentration (IC50) in assay [1] (setting [3]) worked out at 7.7e-09 M; in assay [2] (Homo sapiens, NCI-H929, 48 h), 1.46 µM.

As to `Cc1c(-c2c(-c3ccsc3)sc3ncnc(OC(Cc4ccccc4)C(=O)O)c23)ccc(OCCN2CCN(C)CC2)c1Cl` [Example 510, (2R)-2-{[(5Sa)-5-{3-chloro-2-methyl-4-[2-(4-methylpiperazin-1-yl)ethoxy]phenyl}-6-(thiophen-3-yl)thieno[2,3-d]pyrimidin-4-yl]oxy}-3-phenylpropanoic acid], the IC50 is 3.9e-08 M in assay [1] (setting [4]) and 0.639 µM in assay [2] (Homo sapiens, NCI-H929, 48 h).

In the case of `Cc1c(-c2c(-c3ccc(F)cc3)sc3ncnc(OC(Cc4ccccc4OCc4ccc(F)cn4)C(=O)O)c23)ccc(OCCN2CCN(C)CC2)c1Cl` [Example 10, (2R)-2-{[(5Sa)-5-{3-chloro-2-methyl-4-[2-(4-methylpiperazin-1-yl)ethoxy]phenyl}-6-(4-fluorophenyl)thieno[2,3-d]pyrimidin-4-yl]oxy}-3-{2-[(5-fluoropyridin-2-yl)methoxy]phenyl}propanoic acid], the IC50 in assay [1] (setting [3]) was 9.7e-09 M; in assay [2] (Homo sapiens, NCI-H929, 48 h), 0.275 µM.

For `COc1ccccc1CC(Oc1ncnc2sc(-c3ccco3)c(-c3ccc(OCC4CCCN4C)c(Cl)c3C)c12)C(=O)O` [Example 299, (2R)-2-{[(5Sa)-5-(3-chloro-2-methyl-4-{[(2R)-1-methylpyrrolidin-2-yl]methoxy}phenyl)-6-(furan-2-yl)thieno[2,3-d]pyrimidin-4-yl]oxy}-3-(2-methoxyphenyl)propanoic acid], the values for the IC50 in assay [1] (setting [3]) and in assay [2] were 1.6e-08 M and 1.03 µM, respectively.

In the case of `CNc1nccc(COc2ccccc2CC(Oc2ncnc3sc(-c4ccco4)c(-c4ccc(OCCN5CCN(C)CC5)c(Cl)c4C)c23)C(=O)O)n1` [Example 253, (2R)-2-{[(5Sa)-5-{3-chloro-2-methyl-4-[2-(4-methylpiperazin-1-yl)ethoxy]phenyl}-6-(furan-2-yl)thieno[2,3-d]pyrimidin-4-yl]oxy}-3-(2-{[2-(methylamino)pyrimidin-4-yl]methoxy}phenyl)propanoic acid], the IC50 came to 3.1e-09 M in assay [1] (setting [3]) and 0.041 µM in assay [2] (Homo sapiens, NCI-H929, 48 h).

As to `COCCCSc1nccc(COc2ccccc2CC(Oc2ncnc3sc(-c4ccc(F)cc4)c(-c4ccc(OCCN5CCN(C)CC5)c(Cl)c4C)c23)C(=O)O)n1` [Example 66, (2R)-2-{[(5Sa)-5-{3-chloro-2-methyl-4-[2-(4-methylpiperazin-1-yl)ethoxy]phenyl}-6-(4-fluorophenyl)thieno[2,3-d]pyrimidin-4-yl]oxy}-3-[2-({2-[(3-methoxypropyl)sulfanyl]pyrimidin-4-yl}methoxy)phenyl]propanoic acid], the IC50 in assay [1] (setting [3]) is 4.6e-09 M; in assay [2] (Homo sapiens, NCI-H929, 48 h), 0.037 µM.
